Values of other authors as cited in patent EP4368198A1, “COMPOSITION FOR DELIVERING A PROTEIN OR A POLYPEPTIDE TO A EUKARYOTIC CELL” (Klinikum der Universität München, priority 2022, dated 2024).

Conditions: normalized, most hydrophobic residue 100, glycine 0, Monera et al. 1995

In the case of `O=C(O)[C@@H]1CCCN1` [Proline (pro), Proline], the “hydrophobicity index At pH 7” value is listed as -46 (used pH 2).
